Laboratory results published in ChEMBL document CHEMBL1127612, “Maleimidoethyl 3-(tri-n-butylstannyl)hippurate: a useful radioiodination reagent for protein radiopharmaceuticals to enhance target selective radioactivity localization” (J Med Chem, 1994).

Columns and labels:
Settings in all cases: in vivo
Mus musculus [1] = experiment: Tested for biodistribution of radioactivity after 10 min of intravenous injection in mice intestine; type: ADME, organism-based
Mus musculus [2] = experiment: Tested for biodistribution of radioactivity after 24 hr of intravenous injection in mice urine; type: ADME, organism-based
Mus musculus [3] = experiment: Tested for biodistribution of radioactivity after 1 hr of intravenous injection in mice lung; type: ADME, organism-based
Mus musculus [4] = experiment: Tested for biodistribution of radioactivity after 48 hr of intravenous injection in mice liver; type: ADME, organism-based
Mus musculus [5] = experiment: Tested for biodistribution of radioactivity after 10 min of intravenous injection in mice kidneys; type: ADME, organism-based
Mus musculus [6] = experiment: Tested for biodistribution of radioactivity after 24 hr of intravenous injection in mice neck; type: ADME, organism-based
Mus musculus [7] = experiment: Tested for biodistribution of radioactivity after 24 hr of intravenous injection in mice stomach; type: ADME, organism-based
Mus musculus [8] = experiment: Tested for biodistribution of radioactivity after 3h of intravenous injection in mice kidneys; type: ADME, organism-based, Kidney
Mus musculus [9] = experiment: Tested for biodistribution of radioactivity after 6 hr of intravenous injection in mice stomach; type: ADME, organism-based
Mus musculus [10] = experiment: Tested for biodistribution of radioactivity after 1 hr of intravenous injection in mice kidneys; type: ADME, organism-based, Kidney
Mus musculus [11] = experiment: Tested for biodistribution of radioactivity after 48 hr of intravenous injection in mice lung; type: ADME, organism-based
Mus musculus [12] = experiment: Tested for biodistribution of radioactivity after 6 hr of intravenous injection in mice intestine; type: ADME, organism-based
Mus musculus [13] = experiment: Tested for biodistribution of radioactivity after 1 hr of intravenous injection in mice blood; type: ADME, organism-based
Mus musculus [14] = experiment: Tested for biodistribution of radioactivity after 1 hr of intravenous injection in mice stomach; type: ADME, organism-based
Mus musculus [15] = experiment: Tested for biodistribution of radioactivity after 24 hr of intravenous injection in mice spleen; type: ADME, organism-based
Mus musculus [16] = experiment: Tested for biodistribution of radioactivity after 1 hr of intravenous injection in mice spleen; type: ADME, organism-based
Mus musculus [17] = experiment: Tested for biodistribution of radioactivity after 6 hr of intravenous injection in mice neck; type: ADME, organism-based
Mus musculus [18] = experiment: Tested for biodistribution of radioactivity after 24 hr of intravenous injection in mice liver; type: ADME, organism-based
Mus musculus [19] = experiment: Tested for biodistribution of radioactivity after 6 hr of intravenous injection in mice kidneys; type: ADME, organism-based, Kidney
Mus musculus [20] = experiment: Tested for biodistribution of radioactivity after 10 min of intravenous injection in mice blood; type: ADME, organism-based
Mus musculus [21] = experiment: Tested for biodistribution of radioactivity after 3h of intravenous injection in mice spleen; type: ADME, organism-based
Mus musculus [22] = experiment: Tested for biodistribution of radioactivity after 3h of intravenous injection in mice blood; type: ADME, organism-based
Mus musculus [23] = experiment: Tested for biodistribution of radioactivity after 24 hr of intravenous injection in mice kidneys; type: ADME, organism-based, Kidney
Mus musculus [24] = experiment: Tested for biodistribution of radioactivity after 48 hr of intravenous injection in mice blood; type: ADME, organism-based
Mus musculus [25] = experiment: Tested for biodistribution of radioactivity after 10 min of intravenous injection in mice lung; type: ADME, organism-based
Mus musculus [26] = experiment: Tested for biodistribution of radioactivity after 3h of intravenous injection in mice intestine; type: ADME, organism-based
Mus musculus [27] = experiment: Tested for biodistribution of radioactivity after 24 hr of intravenous injection in mice blood; type: ADME, organism-based
Mus musculus [28] = experiment: Tested for biodistribution of radioactivity after 48 hr of intravenous injection in mice neck; type: ADME, organism-based
Mus musculus [29] = experiment: Tested for biodistribution of radioactivity after 24 hr of intravenous injection in mice feces; type: ADME, organism-based
Mus musculus [30] = experiment: Tested for biodistribution of radioactivity after 10 min of intravenous injection in mice liver; type: ADME, organism-based
Mus musculus [31] = experiment: Tested for biodistribution of radioactivity after 48 hr of intravenous injection in mice kidneys; type: ADME, organism-based
Mus musculus [32] = experiment: Tested for biodistribution of radioactivity after 72 hr of intravenous injection in mice spleen; type: ADME, organism-based
Mus musculus [33] = experiment: Tested for biodistribution of radioactivity after 72 hr of intravenous injection in mice liver; type: ADME, organism-based
Mus musculus [34] = experiment: Tested for biodistribution of radioactivity after 24 hr of intravenous injection in mice lung; type: ADME, organism-based
Mus musculus [35] = experiment: Tested for biodistribution of radioactivity after 6 hr of intravenous injection in mice blood; type: ADME, organism-based
Mus musculus [36] = experiment: Tested for biodistribution of radioactivity after 48 hr of intravenous injection in mice stomach; type: ADME, organism-based
Mus musculus [37] = experiment: Tested for biodistribution of radioactivity after 6 hr of intravenous injection in mice lung; type: ADME, organism-based
Mus musculus [38] = experiment: Tested for biodistribution of radioactivity after 72 hr of intravenous injection in mice stomach; type: ADME, organism-based
Mus musculus [39] = experiment: Tested for biodistribution of radioactivity after 72 hr of intravenous injection in mice blood; type: ADME, organism-based
Mus musculus [40] = experiment: Tested for biodistribution of radioactivity after 3h of intravenous injection in mice stomach; type: ADME, organism-based
Mus musculus [41] = experiment: Tested for biodistribution of radioactivity after 3h of intravenous injection in mice neck; type: ADME, organism-based
Mus musculus [42] = experiment: Tested for biodistribution of radioactivity after 6 hr of intravenous injection in mice spleen; type: ADME, organism-based
Mus musculus [43] = experiment: Tested for biodistribution of radioactivity after 10 min of intravenous injection in mice stomach; type: ADME, organism-based
Mus musculus [44] = experiment: Tested for biodistribution of radioactivity after 72 hr of intravenous injection in mice lung; type: ADME, organism-based
Mus musculus [45] = experiment: Tested for biodistribution of radioactivity after 48 hr of intravenous injection in mice spleen; type: ADME, organism-based
Mus musculus [46] = experiment: Tested for biodistribution of radioactivity after 72 hr of intravenous injection in mice kidneys; type: ADME, organism-based
Mus musculus [47] = experiment: Tested for biodistribution of radioactivity after 10 min of intravenous injection in mice neck; type: ADME, organism-based
Mus musculus [48] = experiment: Tested for biodistribution of radioactivity after 24 hr of intravenous injection in mice intestine; type: ADME, organism-based
Mus musculus [49] = experiment: Tested for biodistribution of radioactivity after 3h of intravenous injection in mice lung; type: ADME, organism-based
Mus musculus [50] = experiment: Tested for biodistribution of radioactivity after 72 hr of intravenous injection in mice intestine; type: ADME, organism-based
Mus musculus [51] = experiment: Tested for biodistribution of radioactivity after 1 hr of intravenous injection in mice intestine; type: ADME, organism-based
Mus musculus [52] = experiment: Tested for biodistribution of radioactivity after 3h of intravenous injection in mice liver; type: ADME, organism-based
Mus musculus [53] = experiment: Tested for biodistribution of radioactivity after 72 hr of intravenous injection in mice neck; type: ADME, organism-based
Mus musculus [54] = experiment: Tested for biodistribution of radioactivity after 6 hr of intravenous injection in mice liver; type: ADME, organism-based
Mus musculus [55] = experiment: Tested for biodistribution of radioactivity after 1 hr of intravenous injection in mice liver; type: ADME, organism-based
Mus musculus [56] = experiment: Tested for biodistribution of radioactivity after 1 hr of intravenous injection in mice neck; type: ADME, organism-based
Mus musculus [57] = experiment: Tested for biodistribution of radioactivity after 10 min of intravenous injection in mice spleen; type: ADME, organism-based
Mus musculus [58] = experiment: Tested for biodistribution of radioactivity after 48 hr of intravenous injection in mice intestine; type: ADME, organism-based

Structure (SMILES): NCCCCC(N)C(=O)NC(=O)c1cccc(I)c1 (stereo not drawn)
- Dose/organ (Mus musculus [1]): 0.85%
- Dose/organ (Mus musculus [2]): 10.09%
- Dose/organ (Mus musculus [3]): 11.1%
- Dose/organ (Mus musculus [4]): 3.84%
- Dose/organ (Mus musculus [5]): 6.31%
- Dose/organ (Mus musculus [6]): 0.34%
- Dose/organ (Mus musculus [7]): 0.49%
- Dose/organ (Mus musculus [8]): 7.4%
- Dose/organ (Mus musculus [9]): 1.3%
- Dose/organ (Mus musculus [10]): 8.15%
- Dose/organ (Mus musculus [11]): 4.25%
- Dose/organ (Mus musculus [12]): 2.43%
- Dose/g (Mus musculus [13]): 31.31%
- Dose/organ (Mus musculus [14]): 0.81%
- Dose/organ (Mus musculus [15]): 3.37%
- Dose/organ (Mus musculus [16]): 6.38%
- Dose/organ (Mus musculus [17]): 0.55%
- Dose/organ (Mus musculus [18]): 4.94%
- Dose/organ (Mus musculus [19]): 6.57%
- Dose/organ (Mus musculus [20]): 38.38%
- Dose/organ (Mus musculus [21]): 5.7%
- Dose/g (Mus musculus [22]): 26.13%
- Dose/organ (Mus musculus [23]): 4.23%
- Dose/g (Mus musculus [24]): 12.64%
- Dose/organ (Mus musculus [25]): 11.91%
- Dose/organ (Mus musculus [26]): 2.88%
- Dose/g (Mus musculus [27]): 14.39%
- Dose/organ (Mus musculus [28]): 0.34%
- Dose/organ (Mus musculus [29]): 0.55%
- Dose/organ (Mus musculus [30]): 15.66%
- Dose/organ (Mus musculus [31]): 3.27%
- Dose/organ (Mus musculus [32]): 1.83%
- Dose/organ (Mus musculus [33]): 3.34%
- Dose/organ (Mus musculus [34]): 5.55%
- Dose/g (Mus musculus [35]): 23.13%
- Dose/organ (Mus musculus [36]): 0.42%
- Dose/organ (Mus musculus [37]): 6.9%
- Dose/organ (Mus musculus [38]): 0.4%
- Dose/g (Mus musculus [39]): 11.5%
- Dose/organ (Mus musculus [40]): 1.31%
- Dose/organ (Mus musculus [41]): 0.72%
- Dose/organ (Mus musculus [42]): 5.48%
- Dose/organ (Mus musculus [43]): 0.44%
- Dose/organ (Mus musculus [44]): 3.55%
- Dose/organ (Mus musculus [45]): 2.35%
- Dose/organ (Mus musculus [46]): 2.73%
- Dose/organ (Mus musculus [47]): 0.66%
- Dose/organ (Mus musculus [48]): 1.06%
- Dose/organ (Mus musculus [49]): 7.97%
- Dose/organ (Mus musculus [50]): 0.83%
- Dose/organ (Mus musculus [51]): 2.03%
- Dose/organ (Mus musculus [52]): 11.17%
- Dose/organ (Mus musculus [53]): 0.25%
- Dose/organ (Mus musculus [54]): 9.83%
- Dose/organ (Mus musculus [55]): 14.38%
- Dose/organ (Mus musculus [56]): 0.83%
- Dose/organ (Mus musculus [57]): 7.07%
- Dose/organ (Mus musculus [58]): 0.91%
